Test results taken from patent publication US20260256704A1, “STEALTH-STABILIZED LIPO-POLYAMINO ACIDS” (POLYPEPTIDE THERAPEUTIC SOLUTIONS, S.L., priority 2022, published 2026).

Key:
HeLa cells = test: Luciferase assay for transfection efficiency in HeLa cells; type: cell-based; conditions: LNPs containing the conjugate
Protocol: (§1) HeLa cells were cultured in DMEM high glucose with Glutamax (Gibco—Thermo Fisher #61965-059) supplemented with 10% of Fetal Bovine Serum (Hyclone #SV30160.03HI, provided by GE Healthcare Europe GmbH) and 1% penicillin/streptomycin. Transfections were carried out on 96-well plates containing 10000 cells/well in a final volume of 100 μl, and cells were incubated 24 hours at 37° C. and 5% CO2. After 24 h from cell seeding, the medium was removed and refreshed with 90 μl of complete medium. 10 μl of each LNPs formulation were added to the cells. In the case of positive control (Lipofectamine™ 2000 Transfection Reagent, Invitrogen™), manufacturer guidelines were followed. After 24 hours cells were recovered and processed.
(§2) After 24 h post-incubation with the LNPs formulation, 100 μl of BrightGlo reagent (Promega #E2620) was added in each well following manufacturer instructions. After 5 minutes of incubation at room temperature luciferase activity was measured using VictorNivo (PerkinElmer). Data was represented as luminescence relative to the percentage of transfection relative to the positive control of transfection.
The transfection data is represented as % of the positive control Lipofectamine™ 2000 being the positive control 100% after 24 h of treatment and cell viability is compared to non-treated (NT) cells, being the ATP content readout of NT (non-treated) cells equal to 100%.

HEK293 cells = test: Luciferase assay for transfection efficiency in HEK293 cells; type: cell-based; conditions: at different concentrations (50-300 ng mRNA/well)
Protocol: as §1, with “HEK293” for “HeLa”, “30000” for “10000”, “cells.” for “cells. In the case of positive control (Lipofectamine™ 2000 Transfection Reagent, Invitrogen™), manufacturer guidelines were followed.”
as §2, with “transfection. […]” for “transfection.”

Substance	transfection efficiency relative to the gold standard Lipofectamine (HeLa cells)	transfection efficiency relative to the commercial standard DMG-PEG (HEK293 cells)
C14-PGA(Diol) [Lipo-PAA1]	2.5 fold	
C14-PSar [C14PSar]		comparable transfection to DMG-PEG
